Target: KDM1A (Homo sapiens, UniProt O60341)
Experiment: HRP-coupled fluorometric demethylase assay with recombinant KDM1A (H2O2/HRP counter-screen); dialysis and dilution reversibility; cell thermal shift in MGC-803
Type: biochemical

IC50: 451 nM
SMILES: Oc1ccc(OCc2ccccc2)cc1 [monobenzone]
